This is an account of results in EPA's ToxRefDB 2.

In series [1] the test system is rat. As to conditions: Combined chronic toxicity/carcinogenicity, fischer, Oral, Feed, dose end: 24 month, group: systemic.
Series [2] concerns mouse. Conditions: Carcinogenicity, cd1, Oral, [Not Specified], dose end: 24 month, group: systemic.
The test system of series [3] is rat. Conditions: Prenatal developmental toxicity study, sprague dawley, Oral, Gavage/Intubation, dose end: 15 GD.
In series [4] the test system is rat. As to conditions: Subchronic oral toxicity in rodents, fischer, Water, dose end: 13 week, group: systemic.
Series [5] relates to dog. As to conditions: Chronic toxicity; beagle; Oral; Feed; dose end: 12 month; group: systemic; systemic / pathology microscopic / kidney / adenoma.
The test system of series [6] is rabbit. Conditions: Prenatal developmental toxicity study, new zealand white, Oral, Gavage/Intubation, dose end: 18 GD.
Series [7] deals with rat. Conditions: Subchronic oral toxicity in rodents, sprague dawley, Feed, dose end: 90 day, group: systemic, systemic / in life observation / body weight / body weight + systemic / in life observation / body weight / body weight gain + systemic / in….
Series [8] deals with rat. Conditions: Subchronic dermal toxicity, sprague dawley, Topical, dose end: 90 day, group: systemic.
For series [9], the system named is rat. Conditions: Prenatal developmental toxicity study, sprague dawley, Oral, Gavage/Intubation, dose end: 15 GD. This is another data set of the same source.
The subject of series [10] is mouse. As to conditions: Carcinogenicity; cd1; Oral; Feed; dose end: 78 week; group: systemic; systemic / in life observation / body weight / body weight + systemic / in life observation / body weight / body weight gain.
For series [11], the system named is rat. Conditions: Combined chronic toxicity/carcinogenicity; sprague dawley; Oral; Feed; dose end: 104 week; group: systemic; systemic / pathology microscopic / lymph node / hemorrhage + systemic / pathology microscopic / lymph node / hemosiderosis + systemic / ….
In series [12] the test system is dog. As to conditions: Chronic toxicity, beagle, Oral, Gavage/Intubation, dose end: 12 month, group: systemic.
For series [13], the system named is rat. Conditions: Multigenerational reproductive toxicity study, sprague dawley, Oral, Feed, dose end: 2 generation.
Series [14] concerns rat. Conditions: Peri- and post-natal toxicity study (Segment III); sprague dawley; Oral; Gavage/Intubation; dose end: 40 PND; group: parental; systemic / clinical chemistry / estradiol / estradiol + systemic / organ weight / adrenal gland / absolute.
Series [15] deals with rat. As to conditions: Carcinogenicity; fischer; Oral; Feed; dose end: 103 week; group: systemic; systemic / in life observation / body weight / body weight.
Series [16] relates to mouse. As to conditions: Carcinogenicity, b6c3f1, Oral, Feed, dose end: 103 week, group: systemic.
Series [17] concerns mouse. Conditions: Sub-acute repeat dose toxicity, b6c3f1, Oral, Feed, dose end: 14 day, group: systemic.
The subject of series [18] is rat. Conditions: Subchronic oral toxicity in rodents, fischer, Feed, dose end: 13 week, group: systemic, systemic / in life observation / body weight / body weight.
Series [19] has as its system rat. As to conditions: Sub-acute repeat dose toxicity, fischer, Oral, Feed, dose end: 14 day, group: systemic.
Series [20] concerns rat. Conditions: Combined chronic toxicity/carcinogenicity, sprague dawley, Oral, Feed, dose end: 104 week, group: systemic.
[21] abbreviates: systemic / pathology microscopic / adrenal gland / pheochromocytoma benign + systemic / pathology microscopic / adrenal gland / ….
Where [22] appears, read: systemic / pathology gross / lung / nodule(s).
The mark [23] stands for this setting: systemic / pathology microscopic / liver / hemangiosarcoma + systemic / pathology microscopic / lung / adenoma + systemic / pathology ….
Where [24] appears, read: group: developmental, developmental / developmental malformation / bone / absent.
[25] abbreviates: group: maternal, systemic / in life observation / clinical signs / defecation (diarrhea) + systemic / in life observation / clinical signs / soft stools.
Where [26] appears, read: systemic / urinalysis / protein / protein + systemic / urinalysis / bilirubin / total bilirubin.
[27] abbreviates: systemic / urinalysis / protein / protein + systemic / urinalysis / bilirubin / total bilirubin + systemic / urinalysis / specific gravity/….
[28] abbreviates: group: developmental, systemic / in life observation / body weight / fetal weight.
Where [29] appears, read: group: maternal, systemic / in life observation / body weight / body weight gain + systemic / in life observation / clinical signs / abnormal respiratory ….
[30] abbreviates: group: maternal, systemic / in life observation / clinical signs / defecation (diarrhea) + systemic / in life observation / clinical signs / oral discharge.
[31] abbreviates: systemic / pathology microscopic / skin / acanthosis.
Setting [32] is: group: developmental, developmental / developmental malformation / bone / [other] + developmental / developmental malformation / bone / incomplete ossification + ….
[33] abbreviates: group: maternal, systemic / in life observation / clinical signs / abnormal respiratory sounds.
[34] abbreviates: group: maternal, systemic / in life observation / clinical signs / abnormal respiratory sounds + systemic / in life observation / body weight / body weight ….
[35] abbreviates: systemic / clinical chemistry / cholesterol / cholesterol + systemic / in life observation / clinical signs / emesis + systemic / in life ….
Where [36] appears, read: group: offspring, systemic / in life observation / body weight / offspring (pup) weight + systemic / in life observation / body weight / offspring (pup) ….
Setting [37] is: group: parental, systemic / in life observation / body weight / body weight + systemic / in life observation / body weight / body weight gain + systemic / in….
[38] abbreviates: systemic / pathology microscopic / liver / hepatocellular adenoma + systemic / pathology microscopic / liver / hepatocellular carcinoma.
The mark [39] stands for this setting: systemic / in life observation / body weight / body weight + systemic / in life observation / body weight / body weight gain + systemic / in….
[40] abbreviates: systemic / in life observation / body weight / body weight gain + systemic / in life observation / mortality / mortality + systemic / in ….
[41] abbreviates: systemic / pathology microscopic / kidney / adenoma + systemic / organ weight / kidney / absolute + systemic / organ weight / kidney / ….

Regarding `CN(C)NC(=O)CCC(=O)O` [Daminozide], the LOAEL is over 500 mg/kg/day in series [1] (setting [21]); over 1410 mg/kg/day in series [2] (setting [23]); 1800 mg/kg/day in series [3] (setting [24]); 1800 mg/kg/day in series [3] (setting [25]); 2.01 mg/kg/day in series [4] (setting [26]); over 188 mg/kg/day in series [5]. The NEL was 25 mg/kg/day in series [1] (setting [21]); under 42 mg/kg/day in series [2] (setting [22]); 390 mg/kg/day in [3] (setting [24]); 390 mg/kg/day in series [3] (setting [25]); 0.8 mg/kg/day in [4] (setting [27]); 75 mg/kg/day in series [5]. Moreover, the NOAEL in series [1] (setting [21]) is at least 500 mg/kg/day; in [2] (setting [23]), at least 1410 mg/kg/day; in series [3] (setting [24]), 390 mg/kg/day; in series [3] (setting [25]) it was 390 mg/kg/day; in series [4] (setting [27]), 0.8 mg/kg/day; in [5] it was at least 188 mg/kg/day. The LEL came to 250 mg/kg/day in series [1] (systemic / pathology microscopic / adrenal gland / pheochromocytoma malignant); 42 mg/kg/day in series [2] (setting [22]); 1800 mg/kg/day in [3] (setting [24]); 1800 mg/kg/day in series [3] (setting [25]); 2.01 mg/kg/day in series [4] (setting [26]); 188 mg/kg/day in series [5].

In the case of `CCCCCCCCCC[N+](C)(C)CCCCCCCCCC.[Cl-]` [Didecyldimethylammonium chloride], the LEL was found to be 10 mg/kg/day in [6] (setting [28]); 1 mg/kg/day in series [6] (setting [30]); 175 mg/kg/day in series [7]; 2 mg/kg/day in series [8] (setting [31]); 20 mg/kg/day in series [9] (setting [32]); 10 mg/kg/day in [9] (setting [33]). For the same molecule, the LEL in series [10] amounted to 156 mg/kg/day; in series [11], 64 mg/kg/day; in series [12] (systemic / in life observation / clinical signs / emesis + systemic / in life observation / clinical signs / mucoid stools + systemic / in …) it was 10 mg/kg/day; in [13] (setting [36]), 101 mg/kg/day; in series [13] (setting [37]), 101 mg/kg/day. The LOAEL in series [6] (setting [28]) is 10 mg/kg/day; in [6] (setting [29]), 3 mg/kg/day; in [7], 175 mg/kg/day; in series [8] (systemic / pathology microscopic / skin / acanthosis + systemic / pathology microscopic / skin / inflammation) it was 6 mg/kg/day; in series [9] (setting [32]), 20 mg/kg/day; in series [9] (setting [33]), 10 mg/kg/day. Further, the LOAEL was determined as 156 mg/kg/day in [10]; 64 mg/kg/day in series [11]; 20 mg/kg/day in series [12] (setting [35]); 101 mg/kg/day in series [13] (setting [36]); 101 mg/kg/day in series [13] (setting [37]). The NEL was 3 mg/kg/day in series [6] (setting [28]); under 1 mg/kg/day in [6] (setting [30]); 60.7 mg/kg/day in series [7]; under 2 mg/kg/day in series [8] (setting [31]); 10 mg/kg/day in series [9] (setting [32]); 1 mg/kg/day in series [9] (setting [34]). The NEL in series [10] stood at 76.3 mg/kg/day; in [11], 32 mg/kg/day; in series [12] (setting [35]), 3 mg/kg/day; in series [13] (setting [36]) it was 48.2 mg/kg/day; in series [13] (setting [37]), 48.2 mg/kg/day. In addition, the NOAEL in series [6] (setting [28]) amounted to 3 mg/kg/day; in series [6] (setting [29]), 1 mg/kg/day; in series [7], 60.7 mg/kg/day; in [8] (systemic / pathology microscopic / skin / acanthosis + systemic / pathology microscopic / skin / inflammation + systemic / in life …) it was 2 mg/kg/day; in [9] (setting [32]), 10 mg/kg/day; in series [9] (setting [34]) it was 1 mg/kg/day. In addition, the NOAEL is 76.3 mg/kg/day in series [10]; 32 mg/kg/day in [11]; 10 mg/kg/day in series [12] (setting [35]); 48.2 mg/kg/day in series [13] (setting [36]); 48.2 mg/kg/day in [13] (setting [37]).

As to `CCOC(=O)c1ccc(O)cc1` [Ethylparaben], in series [14], the LEL amounted to 1000 mg/kg/day, the LOAEL was over 1000 mg/kg/day, the NEL came to 250 mg/kg/day and the NOAEL is at least 1000 mg/kg/day.

`C=CCc1ccc(O)c(OC)c1` [Eugenol]: the LEL in [15] turned out to be 625 mg/kg/day; in series [16] (setting [38]), 450 mg/kg/day; in [17] (systemic / in life observation / body weight / body weight + systemic / in life observation / body weight / body weight gain), 1880 mg/kg/day; in [18], 300 mg/kg/day; in series [19] (systemic / in life observation / body weight / body weight gain) it was 1250 mg/kg/day. Besides, the LOAEL in [15] is 625 mg/kg/day; in series [16] (systemic / in life observation / body weight / body weight), 900 mg/kg/day; in [17] (setting [39]), over 15000 mg/kg/day; in series [18], 625 mg/kg/day; in series [19] (setting [40]) it was over 5000 mg/kg/day. For the same molecule, the NEL in series [15] was 300 mg/kg/day; in series [16] (setting [38]), under 450 mg/kg/day; in [17] (setting [39]) it was 900 mg/kg/day; in series [18], 150 mg/kg/day; in series [19] (systemic / in life observation / body weight / body weight gain + systemic / in life observation / mortality / mortality), 625 mg/kg/day. In addition, the no-observed-adverse-effect level (NOAEL) in series [15] is 300 mg/kg/day; in series [16] (systemic / in life observation / body weight / body weight + systemic / pathology microscopic / liver / adenoma/carcinoma combined), 450 mg/kg/day; in series [17] (setting [39]) it was at least 15000 mg/kg/day; in series [18], 300 mg/kg/day; in series [19] (setting [40]) it was at least 5000 mg/kg/day.

With `O=P(OC(CCl)CCl)(OC(CCl)CCl)OC(CCl)CCl` [TDCPP], the NEL in series [20] (systemic / pathology microscopic / adrenal gland / adenoma + systemic / pathology microscopic / kidney / adenoma + systemic / pathology …) amounted to 5 mg/kg/day. In series [20] (setting [41]), the LEL came out at 20 mg/kg/day, the LOAEL is over 80 mg/kg/day and the NOAEL is at least 80 mg/kg/day.

The term LOAEL denotes the lowest dose or exposure tested at which an adverse effect was seen. For orientation: NOAEL means the highest dose or exposure tested at which no adverse effect was seen.
